Data from PubChem BioAssay AID1963975 (Molecular Pharmacology Branch, DTP, NCI, 2024).
Where “and” joins values, the source holds several entries; their conditions need not be identical. Identical values can stand only once.

System: 624824-186-R-J2-PDC multicell spheroids, viability
Assay: Anticancer human tumor 624824-186-R-J2-PDC patient-derived colon adenocarcinoma cell line growth inhibition [PI3K]
Settings: for viability, T/C: stronger effect = lower value
From the text: Combinatorial screen of targeted agents with the PI3K inhibitors inavolisib, alpelisib, duvelisib, and copanlisib in multi-cell type tumor spheroids
A high-throughput screen of multi-cell type tumor spheroids was designed to identify active combinations of targeted small molecules and PI3K pathway inhibitors. Complex spheroids include a stromal component modeled by human endothelial cells (HUVEC) and fibroblasts modeled by human mesenchymal stem cells (MSCs). The concentration ranges selected for each drug and investigational agent were based upon clinically achievable concentrations if the clinical Cmax of the agent was known.
Compounds. The drugs and investigational agents: inavolisib (NSC800729), alpelisib (NSC765974), duvelisib (NSC772469), copanlisib (NSC816437), ipatasertib (NSC767898), afuresertib (NSC778305), talazoparib (NSC767125), sapanisertib (NSC764658), selumetinib (NSC741078), tovorafenib (DAY101, NSC766906), vemurafenib (NSC761431), ravoxertinib (NSC781343), sotorasib (NSC818433), MRTX1133 (NSC 836407), abemaciclib (NSC 768073), palbociclib (NSC758247), venetoclax (NSC 766270), SY5609 (NSC837396), enzalutamide (NSC755605), and darolutamide (NSC825331), were obtained from the National Cancer Institute (NCI) Developmental Therapeutics Program Chemical Repository. The FDA-approved anticancer drug set is available from the NCI Developmental Therapeutics Program. […] The stock solutions were prepared in dimethyl sulfoxide (DMSO, Sigma-Aldrich, St. Louis, MO, cat. D2650) at 800-fold the tested concentration and stored at -70 degrees C prior to their use. All drugs and investigational agents were tested over a range starting from a high concentration at or near the clinical Cmax and decreasing in half-log increments. If the clinical Cmax for an agent had not been determined, the highest concentration tested was 10 microM.
Cell Culture. All cells were maintained in an incubator at 37 degrees C and 5% CO2 with 95% humidity. The PDC lines were cultured according to standard operating procedures established by the NCI PDMR (https://pdmr.cancer.gov/sops/default.htm). All PDCs were thawed and cultured in Matrigel-coated flasks prepared with a working solution of 1X Ham's F-12 nutrient mix, without supplementation (Invitrogen, Waltham, MA, cat. 11765054), 100 U/mL penicillin-streptomycin (Invitrogen, cat. 15140122), and 2.5% Matrigel (Corning Inc., Corning, NY, cat. 354248) for the first three passages. The 354836-022-R-J1-PDC, 475296-252-R-J1-PDC, and 997726-040-R-J2-PDC lines were cultured in 6A media, which includes advanced DMEM/F-12 (Thermo Fisher Scientific, cat. 12634028), 10 mM HEPES (Thermo Fisher Scientific, cat. 15630080), 1X GlutaMAX supplement (Thermo Fisher Scientific, cat. 35050061), 0.1 mg/mL primocin (InvivoGen, San Diego, CA, cat. ant-pm-2), 10% defined fetal bovine serum, heat inactivated (HyClone Laboratories Inc., Logan, UT, cat. SH30070.03HI), 50% L-WRN conditioned media (ATCC, cat. CRL-3276), 1.25 mM N-Acetyl-L-cysteine (Sigma-Aldrich, cat. A9165), 10 mM nicotinamide (Sigma-Aldrich, cat. N0636), 1X B-27 supplement (Thermo Fisher Scientific, cat. 17504044), 1X N-2 supplement (Thermo Fisher Scientific, cat. 17502048), and 10 microM Y-27632 dihydrochloride (Tocris Bioscience, Bristol, United Kingdom, cat. 1254). The 624824-186-R-J2-PDC line was cultured in 6C/Colon 1B media, which includes all 6A media components plus 50 ng/mL human EGF recombinant protein (Thermo Fisher Scientific, cat. PHG0311). […]
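Also: spheroids exposed to agents for 7 days before viability read.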
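For viability, T/C in this document: 100% = DMSO vehicle treated spheroids.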

IC50 (curve of compound) | IC50 (compound alone, run of 06/13/2023) [µM] | SMILES | viability, T/C (compound 0.1 µM) | viability, T/C (compound 0.316 µM) | viability, T/C (compound 1 µM) | viability, T/C (compound 10 µM) | viability, T/C (compound 3.16 µM)
> 10 µM |  | C=CC(=O)N1CCN(c2nc(=O)n(-c3c(C)ccnc3C(C)C)c3nc(-c4c(O)cccc4F)c(F)cc23)C(C)C1 (centres undefined) | 82% [middle of 4 runs] | 82.1% [middle of 4 runs] | 99.7% [middle of 4 runs] | 100% [middle of 4 runs] | 
 | > 10 | CC(Nc1ncnc2nc[nH]c12)c1cc2cccc(Cl)c2c(=O)n1-c1ccccc1 (centres undefined) |  | 91.6% [middle of 8 runs] | 91.4% [middle of 8 runs] |  | 
> 10 µM |  | CC1(C)CCC(CN2CCN(c3ccc(C(=O)NS(=O)(=O)c4ccc(NCC5CCOCC5)c([N+](=O)[O-])c4)c(Oc4cnc5[nH]ccc5c4)c3)CC2)=C(c2ccc(Cl)cc2)C1 | 78.7% (2×) and 107% and 95.2% | 80.4% [middle of 4 runs] |  | 72.2% [middle of 4 runs] | 67% [middle of 4 runs]
4.11 µM [middle of 4 runs] |  | CC1(C)CCC(Nc2ncc(C(F)(F)F)c(-c3c[nH]c4c(P(C)(C)=O)c(C#N)ccc34)n2)CN1 (centres undefined) | 76.4% [middle of 4 runs] | 102% [middle of 4 runs] | 104% [middle of 4 runs] | 7.89% [middle of 4 runs] | 62.5% [middle of 4 runs]
> 10 µM |  | CNC(=O)c1ccc(N2C(=S)N(c3ccc(C#N)c(C(F)(F)F)c3)C(=O)C2(C)C)cc1F |  |  |  |  | 
> 10 µM |  | C[C@@H](NC(=O)c1ncnc(N)c1Cl)c1ncc(C(=O)Nc2cc(C(F)(F)F)c(Cl)cn2)s1 |  |  | 81.6% [middle of 4 runs] |  | 68% [middle of 4 runs]
> 10 µM |  | Cn1ncc(Cl)c1-c1cc(C(=O)NC(CN)Cc2cccc(F)c2)sc1Cl (centres undefined) | 79.8% [middle of 4 runs] | 74.5% [middle of 4 runs] | 89.4% [middle of 4 runs] | 59.2% [middle of 4 runs] | 68.2% [middle of 4 runs]
